The text below walks through data of patent US4923857A, “3-Alkenyl-1-azabicyclo(3.2.0)hept-2-ene-2-carboxylic acid compounds” (Fujisawa Pharmaceutical Company, Ltd., priority 1988, dated 1990).

Some results are limits rather than exact numbers.

This test has as its system S. aureus 209P JC-1. The test is described as follows: in vitro Antimicrobial Activity, two-fold agar-plate dilution method (MIC). It counts as cell-based. Conditions: Staphylococcus aureus, HI-agar, 37° C., 20 hours, 10^6 viable cells per ml, read-out: MIC (minimal inhibitory concentration). The procedure: in vitro Antimicrobial Activity was determined by the two-fold agar-plate dilution method as described below.
One loopful of an overnight culture of a test strain in Trypticase-soy broth (10^6 viable cells per ml) was streaked on heart infusion agar (HI-agar) containing graded concentrations of the test compound, and the minimal inhibitory concentration (MIC) was expressed in terms of […] after incubation at 37° C. for 20 hours.

Consider `C/C(=C\[C@@H]1CCCN1)C1=C(C(=O)O)N2C(=O)[C@H]([C@@H](C)O)[C@H]2C1` [Example 4-(1), (5R,6S)-6-[(1R)-1-hydroxyethyl]-7-oxo-3-[(E)-2-{(2S)-pyrrolidin-2-yl}-1-methylethenyl]-1-azabicyclo [3.2.0]hept-2-ene-2-carboxylic acid], for which the MIC is ≤ 0.025 µg/mL.
